Laboratory results: patent US11976083B2, “Inhibitors of peptidylarginine deiminases” (Gilead Sciences, Inc., priority 2020, dated 2024)

Target: T1, human PAD4 (Homo sapiens, UniProt Q9UM07)
T1 construct: human PAD4 (NM_012387), A2-P663, was PCR amplified; His-SUMO (N, cleaved yes); made in house; host or cells: E. coli BL21(DE3)
Assay: In vitro PAD4 BAEE biochemical assay
Conditions: BAEE substrate 3 mM, 5 nM PAD4, 2 mM calcium chloride; geometric mean of multiple experiments
Outline: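 Recombinant PAD4 (5 nM final) with 2 mM CaCl2 was preincubated with compound for 30 min at 25 °C in MOPS pH 7.6 buffer with DTT, then reacted with 3 mM BAEE for 2 h at 25 °C. Released ammonia was detected fluorimetrically with o-phthalaldehyde/DTT; IC50 from four-parameter fit, geometric mean of experiments.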

T1 sequence (Q9UM07 2-663): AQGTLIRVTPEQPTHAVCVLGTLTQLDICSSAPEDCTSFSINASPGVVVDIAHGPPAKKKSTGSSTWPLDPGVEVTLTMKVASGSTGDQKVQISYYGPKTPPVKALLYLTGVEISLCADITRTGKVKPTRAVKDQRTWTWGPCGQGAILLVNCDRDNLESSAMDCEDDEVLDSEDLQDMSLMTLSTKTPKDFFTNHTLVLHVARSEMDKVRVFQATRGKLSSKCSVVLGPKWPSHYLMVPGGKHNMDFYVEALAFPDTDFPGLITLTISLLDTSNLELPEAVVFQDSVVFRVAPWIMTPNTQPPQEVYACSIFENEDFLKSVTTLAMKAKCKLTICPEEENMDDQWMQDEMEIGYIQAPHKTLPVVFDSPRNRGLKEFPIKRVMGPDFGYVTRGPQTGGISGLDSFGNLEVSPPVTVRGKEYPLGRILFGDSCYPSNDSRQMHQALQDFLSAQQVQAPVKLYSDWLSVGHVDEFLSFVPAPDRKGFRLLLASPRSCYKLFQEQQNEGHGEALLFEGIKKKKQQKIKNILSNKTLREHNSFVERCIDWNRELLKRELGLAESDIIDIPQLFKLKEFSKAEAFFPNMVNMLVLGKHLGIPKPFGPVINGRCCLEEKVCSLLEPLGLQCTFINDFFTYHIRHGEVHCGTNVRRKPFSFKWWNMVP

IC50 [nM] | Structure (SMILES)
44 | C[C@H]1NC(=O)[C@@H]2C[C@H]2CCCC(F)(F)Cn2c(-c3nc4cc(C(=O)N5C[C@H](N)[C@@H]6CC[C@H]5C6)cc(Cl)c4n3C3CC3)cc3ccc1nc32 [Example 471, (2~{R},5~{R},7~{R})-14-[5-[(1~{S),4~{R},5~{R})-4-amino-2-azabicyclo[3.2.1]octane-2-carbonyl]-7-chloro-1-cyclopropyl-benzimidazol-2-yl]-11,11-difluoro-2-methyl-3,13,19-triazatetracyclo[11.5.2.0^{5,7}.0^{16,20}] icosa-1(18),14,16,19-tetraen-4-one]
121 | COc1cc(C(=O)N2C[C@H]3CC[C@@H]2[C@@H]3N)cc2nc(-c3cc4ccc5nc4n3CCCCCCC(C)(C)C(=O)N[C@@H]5C)n(C)c12 [Example 13, (11~{R})-17-[5-[(1~{R},4~{R},7~{R})-7-amino-2-azabicyclo[2.2.1]heptane-2-carbonyl]-7-methoxy-1-methyl-benzimidazol-2-yl]-8,8,11-trimethyl-1,10,19-triazatricyclo[10.5.2.0^{15,18}]nonadeca-12(19),13,15(18),16-tetraen-9-one]
24 | [2H]C1([2H])CCCn2c(-c3nc4cc(C(=O)N5C[C@H](N)[C@@H]6CC[C@H]5C6)cc(F)c4n3C3CC3)cc3ccc(nc32)[C@@H](C)NC(=O)c2ccc(Cl)nc2C1([2H])[2H] [Example 951, (2~{R})-17-[5-[(1~{S},4~{R}, 5~{R})-4-amino-2-azabicyclo [3.2.1]octane-2-carbonyl]-1-cyclopropyl-7-fluoro-benzimidazol-2-yl]-8-chloro-11,11,12,12-tetradeuterio-2-methyl-3,9,16,22-tetrazatetracyclo[14.5.2.0^ {5,10).0^{19,23}]tricosa-1(22),5(10),6,8,17,19(23),20-heptaen-4-one]
88 | COc1cc(C(=O)N2[C@H]3CC[C@@H]2[C@H](N)C3)cc2nc(-c3cc4ccc5nc4n3CCCCCCCC3(CC3)C(=O)N[C@@H]5C)n(C)c12 [Example 281, (12~{R})-18-[5-[(1~{R},2~{R},4~{S})-2-amino-7-azabicyclo[2.2.1]heptane-7-carbonyl]-7-methoxy-1-methyl-benzimidazol-2-yl]-12-methyl-spiro[1,11,20-triazatricyclo[11.5.2.0^{16,19}]icosa-13(20),14,16(19),17-tetraene-9,1′-cyclopropane]-10-one]
59 | COc1cc(C(=O)N2C[C@H](N)[C@@H]3CC[C@H]2C3)cc2nc(-c3cc4ccc5nc4n3CCCCCc3cc(Cl)ccc3C(=O)N[C@@H]5C)n(C)c12 [Example 901, (2~{R})-17-[5-[(1~{S),4~{R}, 5~{R})-4-amino-2-azabicyclo [3.2.1]octane-2-carbonyl]-7-methoxy-1-methyl-benzimidazol-2-yl]-8-chloro-2-methyl-3,16,22-triazatetracyclo [14.5.2.0^{5,10}.0^{19,23}] tricosa-1(22),5(10),6,8,17, 19(23),20-heptaen-4-one]
19 | COc1cc(C(=O)N2C[C@H](N)[C@@H]3CC[C@H]2C3)cc2nc(-c3cc4ccc5nc4n3CCCCCc3nc(Cl)ccc3C(=O)N[C@@H]5C)n(C)c12 [Example 713, (2~{R})-17-[5-[(1~{S}, 4~{R},5~{R})-4-amino-2-azabicyclo[3.2.1]octane-2-carbonyl]-7-methoxy-1-methyl-benzimidazol-2-yl]-8-chloro-2-methyl-3,9,16,22-tetrazatetracyclo [14.5.2.0^{5,10).0^{19,23}] tricosa-1(22),5(10),6,8,17,19(23), 20-heptaen-4-one]
17 | C[C@H]1NC(=O)c2ccnn2CCCCCn2c(-c3nc4cc(C(=O)N5C[C@H](N)[C@@H]6CC[C@H]5C6)cc(F)c4n3C3CC3)cc3ccc1nc32 [Example 912, (2~{R})-16-[5-[(1~{S},4~{R},5~ {R})-4-amino-2-azabicyclo [3.2.1]octane-2-carbonyl]-1-cyclopropyl-7-fluoro-benzimidazol-2-yl]-2-methyl-3,8,9,15,21-pentazatetracyclo [13.5.2.0^{5,9}.0^{18,22}] docosa-1(21),5,7,16,18(22),19-hexaen-4-one]

More lines, now with the values behind:

Structure (SMILES) | IC50 [nM]
COc1cc(C(=O)N2[C@H]3CC[C@@H]2[C@H](N)C3)cc2nc(-c3cc4ccc5nc4n3CCCCc3cccc(n3)C(=O)N[C@@H]5C)n(C)c12 [Example 37, (2~{R})-15-[5-[(1~{R},2~{R},4~{S})-2-amino-7-azabicyclo[2.2.1]heptane-7-carbonyl]-7-methoxy-1-methyl-benzimidazol-2-yl]-2-methyl-3,14,20,22-tetrazatetracyclo[12.5.2.1^{5,9}.0^{17,21}] docosa-1(20),5,7,9(22),15,17(21),18-heptaen-4-one] | 553
COc1cc(C(=O)N2CCC[C@@H](N)[C@H]2C)cc2nc(-c3cc4ccc5nc4n3CCCCCc3nccnc3C(=O)N[C@@H]5C)n(C)c12 [Example 528, (2~{R})-17-[5-[(2~ {R},3~{R})-3-amino-2-methyl-piperidine-1-carbonyl]-7-methoxy-1-methyl-benzimidazol-2-yl]-2-methyl-3,6,9,16,22-pentazatetracyclo [14.5.2.0^{5,10}.0^{19, 23}]tricosa-1(22),5(10), 6,8,17,19(23),20-heptaen-4-one] | 55
COc1cccc2c1C(=O)N[C@H](C)c1ccc3cc(-c4nc5cc(C(=O)N6CC[C@@H](OC)[C@@H](N)C6)cc(OC)c5n4C)n(c3n1)CCCCC2 [Example 854, (2~{R})-17-[5-[(3~{S},4~{R})-3-amino-4-methoxy-piperidine-1-carbonyl]-7-methoxy-1-methyl-benzimidazol-2-yl]-6-methoxy-2-methyl-3,16,22-triazatetracyclo[14.5.2.0^ {5,10}.0^{19,23}]tricosa-1(22),5(10),6,8,17,19(23),20-heptaen-4-one] | 68
COc1cc(C(=O)N2[C@H]3CC[C@@H]2[C@H](N)C3)cc2nc(-c3cc4ccc5cc4n3CCCCCCNC(=O)c3ncccc3-5)n(C)c12 [Example 98, 17-[5-[(1~{R},2~{R},4~{S})-2-amino-7-azabicyclo[2.2.1]heptane-7-carbonyl]-7-methoxy-1-methyl-benzimidazol-2-yl]-6,9,16-triazatetracyclo[14.5.2.0^{2,7}.0^{19,23}] tricosa-1(22),2,4,6,17,19(23),20-heptaen-8-one] | 122
COc1cc(C(=O)N2[C@H]3CC[C@@H]2[C@H](N)C3)cc2nc(-c3cc4ccc5nc4n3CCCCCCCC(=O)Nc3ccccc3-5)n(C)c12 [Example 93, 18-[5-[(1~{R},2~{R},4~{S})-2-amino-7-azabicyclo[2.2.1]heptane-7-carbonyl]-7-methoxy-1-methyl-benzimidazol-2-yl]-8,17,23-triazatetracyclo[15.5.2.0^{2,7).0^{20,24}] tetracosa-1(23),2,4,6,18,20(24),21-heptaen-9-one] | 161
COc1cc(C(=O)N2CC[C@@H](OC)[C@@H](N)C2)cc2nc(-c3cc4ccc5nc4n3CC/C=C\C[C@H]3C[C@H]3C(=O)N[C@@H]5C)n(C)c12 [Example 517, (2~{R},5~{R},7~ {S},9~{Z})-14-[5-[(3~{S},4~{R})-3-amino-4-methoxy-piperidine-1-carbonyl]-7-methoxy-1-methyl-benzimidazol-2-yl]-2-methyl-3,13,19-triazatetracyclo[11.5.2.0^ {5,7}.0^{16,20}] icosa-1(19),9,14,16(20), 17-pentaen-4-one] | 128
COc1cc(C(=O)N2[C@H]3CC[C@@H]2[C@H](N)C3)cc2nc(-c3cc4ccc5nc4n3CCCCCCC(=O)Nc3ncccc3-5)n(C)c12 [Example 84, 17-[5-[(1~{R},2~{R},4~{S})-2-amino-7-azabicyclo[2.2.1]heptane-7-carbonyl]-7-methoxy-1-methyl-benzimidazol-2-yl]-6,8,16,22-tetrazatetracyclo[14.5.2.0^{2,7}.0^{19,23}] tricosa-1(22),2,4,6,17,19(23),20-heptaen-9-one] | 89
C[C@H]1NC(=O)[C@H]2[C@H](CCCCCn3c(-c4nc5cc(C(=O)N[C@H]6CNCC[C@@H]6F)c(F)cc5n4C4CC4)cc4ccc1nc43)C2(F)F [Example 394, 1-cyclopropyl-2-[(2~{R},5~{R},7~{S})-6,6-difluoro-2-methyl-4-oxo-3,13,19-triazatetracyclo[11.5.2.0^{5,7}.0^{16,20}]icosa-1(19),14,16(20),17-tetraen-14-yl]-6-fluoro-~{N}-[(3~{S},4~{S})-4-fluoro-3-piperidyl]benzimidazole-5-carboxamide] | 23
COc1cc(C(=O)N2[C@H]3CC[C@@H]2[C@H](N)C3)cc2nc(-c3cc4ccc5nc4n3C[C@@H]3C[C@H]3COCC(=O)N[C@@H]5C)c(C)n12 [Example 326, (3~{R},5~{R},11~{R})-17-[7-[(1~{R},2~{R},4~{S})-2-amino-7-azabicyclo[2.2.1]heptane-7-carbonyl]-5-methoxy-3-methyl-imidazo[1,2-a]pyridin-2-yl]-11-methyl-7-oxa-1,10,19-triazatetracyclo[10.5.2.0^{3,5}.0^{15,18}] nonadeca-12(19),13,15(18),16-tetraen-9-one] | 30
COc1cc(C(=O)N2CC[C@@H](OC)[C@@H](N)C2)cc2nc(-c3cc4ccc5nc4n3CCCCC[C@@H]3C[C@@]3(F)C(=O)N[C@@H]5C)n(C)c12 [Example 695, (2~{R},5~{S},7~{R})-14-[5-[(3~{S},4~{R})-3-amino-4-methoxy-piperidine-1-carbonyl]-7-methoxy-1-methyl-benzimidazol-2-yl]-5-fluoro-2-methyl-3,13,19-triazatetracyclo[11.5.2.0^ {5,7}.0^{16,20}]icosa-1(19), 14,16(20),17-tetraen-4-one] | 57
